Test results reported in the supplement of paper PMC10307832.

Columns and labels:
Assay in all cases: relative viability (nuclei count vs DMSO), 5 days (fraction); higher = more cells survive
[1] = compound: C1=CC2=C(C=CC(=C2)C=C3C(=O)NC(=NCC4=CC=CS4)S3)N=C1 [RO-3306] + CC(C)C[C@H](NC(=O)[C@H](Cc1ccccc1)NC(=O)c1cnccn1)B(O)O [Bortezomib] (partner 0.002 µM)
Procedure, shortened: (§1)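 Relative viability equals treated-well nuclei counts divided by vehicle-well nuclei counts. Counts came from 4× images of lung cancer cell lines grown in 1536-well plates for 5 days after pin-tool dosing on the day after seeding. Dosing used one drug alone or a fixed anchor-drug dose plus five library-drug doses (not always all listed) in √10 steps, and values are medians of duplicate plates.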

[2] = compound: C1=CC2=C(C=CC(=C2)C=C3C(=O)NC(=NCC4=CC=CS4)S3)N=C1 [RO-3306] + Cc1cc(Nc2cc(N3CCN(C)CC3)nc(Sc3ccc(NC(=O)C4CC4)cc3)n2)n[nH]1 [Tozasertib] (partner 0.1 µM)
Procedure, shortened: as §1

[3] = compound: C1=CC2=C(C=CC(=C2)C=C3C(=O)NC(=NCC4=CC=CS4)S3)N=C1 [RO-3306] + O=C(c1cc(Cc2n[nH]c(=O)c3ccccc23)ccc1F)N1CCN(C(=O)C2CC2)CC1 [Olaparib] (partner 8 µM)
Procedure, shortened: as §1

[4] = compound: O=S(=O)(c1ccccc1)N(CC(F)(F)F)c1ccc(C(O)(C(F)(F)F)C(F)(F)F)cc1 + COc1cccc2cc(-c3nc([C@H]4CC[C@H](C(=O)O)CC4)n4ncnc(N)c34)[nH]c12 [OSI-027] (partner 0.5 µM)
Procedure, shortened: as §1

Cell Line | relative viability ([1]; first compound 0.01 µM) | relative viability ([1]; first compound 0.03162 µM) | relative viability ([1]; first compound 0.1 µM) | relative viability ([1]; first compound 0.3162 µM) | relative viability ([1]; first compound 1 µM) | relative viability ([2]; first compound 0.01 µM) | relative viability ([2]; first compound 0.03162 µM) | relative viability ([2]; first compound 0.1 µM) | relative viability ([2]; first compound 0.3162 µM) | relative viability ([2]; first compound 1 µM) | relative viability ([3]; first compound 0.01 µM) | relative viability ([3]; first compound 0.1 µM) | relative viability ([3]; first compound 0.3162 µM) | relative viability ([3]; first compound 1 µM) | relative viability ([4]; first compound 0.8 µM) | relative viability ([4]; first compound 2.53 µM) | relative viability ([4]; first compound 8 µM) | relative viability ([3]; first compound 0.03162 µM)
HARA | 1.15 | 0.74 | 1.11 | 1.11 | 0.991 | 0.146 | 0.11 | 0.453 | 0.0948 | 0.101 | 0.795 | 0.764 | 0.632 | 0.763 | 0.397 | 0.469 | 0.425 | –
NCI-H23 | 1.04 | 0.755 | 1.1 | 0.944 | 0.773 | 0.279 | 0.304 | 0.394 | 0.124 | 0.301 | 0.333 | 0.25 | 0.307 | 0.268 | 0.62 | 0.711 | 0.594 | –
EKVX | 1.23 | 0.923 | 1.06 | 1.12 | 0.989 | 0.415 | 0.361 | 0.382 | 0.359 | 0.356 | 1.03 | 0.846 | 0.895 | 0.704 | 0.746 | 0.646 | 0.691 | 0.821
NCI-H1755 | 1.13 | 0.983 | 0.976 | 0.936 | 0.978 | 0.577 | 0.688 | 0.514 | 0.547 | 0.554 | 0.973 | 0.867 | 0.839 | 0.953 | 0.712 | 0.657 | 0.691 | 0.902
NCI-H460 | 1.37 | – | 1.1 | 1.34 | 0.776 | 0.217 | 0.542 | 0.392 | 0.116 | 0.0669 | 0.412 | 0.464 | 0.442 | 0.466 | 0.882 | 0.699 | 0.723 | 0.363
NCI-H2405 | 1.07 | 0.963 | 0.982 | 0.959 | 1.03 | 0.746 | 0.723 | 0.704 | 0.675 | 0.628 | 0.844 | 0.887 | 0.899 | 0.732 | 0.674 | 0.645 | 0.681 | 0.863
LU99A | 1.38 | 1.09 | 1.04 | 0.98 | 1.07 | 0.285 | 0.257 | 0.258 | 0.254 | 0.231 | 0.275 | 0.233 | 0.25 | 0.2 | 0.302 | 0.296 | 0.302 | 0.233
NCI-H2087 | 0.726 | 0.843 | 0.729 | 0.947 | 0.738 | 0.254 | 0.19 | 0.214 | 0.228 | 0.217 | 0.626 | 0.671 | 0.723 | 0.656 | 0.6 | 0.487 | 0.622 | 0.476
HCC-827 | 0.995 | 0.907 | 1.13 | 1.02 | 1.04 | 0.452 | 0.417 | 0.376 | 0.4 | 0.419 | 0.705 | 0.627 | 0.715 | 0.666 | 0.883 | 0.858 | 0.766 | 0.67
